# PubChem BioAssay (NCI)
#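 Five compound concentrations were applied to cells in 96-well plates for 48 hours; endpoints were derived by simple linear interpolation of the resulting dose-response curve. GI50 marks 50% less growth. TGI: concentration producing complete growth inhibition.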
# Key:
# Assay in all cases: growth of human tumour cells (NCI), 48 h
# [1] = test system: HT29 colon
# [2] = test system: SK-MEL-2 melanoma
# [3] = test system: EKVX NSCLC
# [4] = test system: NCI-H23 lung
# [5] = test system: SF-268 CNS
# [6] = test system: OVCAR-3 ovarian
# [7] = test system: TK-10 renal
# [8] = test system: SF-539 CNS
# [9] = test system: HCT-116 colon
# [10] = test system: A498 renal
Structure (SMILES),GI50 [1],TGI [1],GI50 [2],TGI [2],GI50 [3],TGI [3],GI50 [4],TGI [4],GI50 [5],TGI [5],GI50 [6],TGI [6],GI50 [7],TGI [7],GI50 [8],TGI [8],GI50 [9],TGI [9],GI50 [10],TGI [10]
Cc1cc(I)cc(CN(C)CCCN2CCCC2)c1O,9.52 µM,24.4 µM,20.6 µM,40.4 µM,38.4 µM,> 100 µM,30 µM,> 100 µM,17.2 µM,49.2 µM,23.2 µM,> 88.2 µM,17 µM,36 µM,15.3 µM,31 µM,15.5 µM,55.6 µM,14.8 µM,33.6 µM
CCOC(=O)/C(C#N)=C\C=C(/Cl)c1ccc(Cl)cc1,24 µM,> 100 µM,27.7 µM,> 91.6 µM,26.5 µM,63.9 µM,12.2 µM,26.9 µM,27.9 µM,> 77 µM,7.76 µM,28.4 µM,16.2 µM,35.2 µM,11.3 µM,33.9 µM,11.2 µM,24.3 µM,32.3 µM,> 79.3 µM
COc1ccc(C(=O)c2ccc([As]=O)cc2)cc1 (configuration not stated),0.0489 µM,0.236 µM,0.173 µM,0.373 µM,0.132 µM,0.293 µM,0.108 µM,0.322 µM,0.0348 µM,0.136 µM,0.0345 µM,0.114 µM,0.057 µM,0.18 µM,0.0432 µM,0.163 µM,0.0387 µM,0.154 µM,0.164 µM,0.305 µM
C(=N\Nc1nnn(Cc2ccccc2)n1)/c1ccccc1,1.26 µM,> 100 µM,1.02 µM,6.28 µM,12.3 µM,> 100 µM,6.97 µM,> 53.8 µM,8.28 µM,> 89.3 µM,2.26 µM,7.95 µM,20 µM,> 100 µM,3.29 µM,32.5 µM,3.82 µM,> 73.3 µM,5.76 µM,55.3 µM
CN1/C(=C\C=C\C2=[N+](C)c3ccccc3C2(C)C)C(C)(C)c2ccccc21,0.0444 µM,1.49 µM,0.212 µM,1.14 µM,0.0297 µM,7.3 µM,0.0189 µM,0.529 µM,0.274 µM,13 µM,0.0514 µM,0.948 µM,0.56 µM,14.8 µM,0.224 µM,5.91 µM,0.0303 µM,1.11 µM,0.0556 µM,0.979 µM
O=C(N/N=C/c1ccccc1O)c1ccccc1,3.43 µM,> 100 µM,> 100 µM,> 100 µM,2 µM,> 100 µM,4.92 µM,> 100 µM,1.07 µM,> 100 µM,0.669 µM,> 100 µM,4.11 µM,> 100 µM,3.19 µM,66.8 µM,0.309 µM,5.19 µM,7.28 µM,> 100 µM
O=C(Nc1ccc(Cl)c(Cl)c1)NS(=O)(=O)c1cnccc1Oc1ccc(F)cc1,3.63 µM,> 100 µM,4.71 µM,> 100 µM,2.68 µM,44.4 µM,3.37 µM,24.5 µM,4.48 µM,> 100 µM,2.79 µM,8.11 µM,3.69 µM,21.6 µM,3.64 µM,24.6 µM,3.07 µM,12.3 µM,> 100 µM,> 100 µM
O=c1oc2ccc(I)cc2c(=O)n1-c1ccc(Cl)cc1F,3.4 µM,18.7 µM,0.582 µM,3.43 µM,1.53 µM,8.77 µM,1.61 µM,7.68 µM,1.51 µM,16.7 µM,0.974 µM,12 µM,4.09 µM,16.9 µM,0.988 µM,6.71 µM,1.21 µM,3.86 µM,0.141 µM,0.7 µM
CC(=O)N1CCC2(c3ccccc3N(C(C)=O)C2c2ccc(O)cc2)C1C(=O)O (configuration not stated),,> 100 µM,,> 100 µM,,> 100 µM,,> 100 µM,,> 100 µM,,> 100 µM,,> 100 µM,,> 100 µM,,> 100 µM,,> 100 µM
CC(=O)/C(=C/c1ccccc1F)C(=O)c1ccccc1,,> 100 µM,,93.8 µM,,> 100 µM,,> 100 µM,,> 100 µM,,58.8 µM,,80.9 µM,,> 100 µM,,> 100 µM,,> 100 µM
CCOC(=O)C1SC(=Nc2ccc(Cl)cc2)N=C1C (configuration not stated),,30.8 µM,,38.5 µM,,45.2 µM,,34.9 µM,,34 µM,,47.8 µM,,64.4 µM,,33 µM,,30.2 µM,,41.3 µM
CC(C)CCC1(CCN)C(=O)NC(=O)NC1=O,,> 100 µM,,> 100 µM,,> 100 µM,,> 100 µM,,> 100 µM,,> 100 µM,,> 100 µM,,> 100 µM,,> 100 µM,,> 100 µM
O=C(O)[C@@H](Cc1ccc2ccccc2c1)NC(=O)n1c2ccccc2c2ccccc21,3.08 µM,8.33 µM,4.19 µM,43.3 µM,5.56 µM,62.2 µM,3.72 µM,26.7 µM,3.77 µM,36.2 µM,1.81 µM,6.78 µM,14.9 µM,> 100 µM,1.99 µM,6.61 µM,2.32 µM,11.8 µM,2.23 µM,9.31 µM
c1ccc2[nH]c(-c3ccc(Nc4nc(N5CCCCC5)nc(N5CCOCC5)n4)cc3)nc2c1,2.44 µM,5.56 µM,2.34 µM,5.36 µM,2.68 µM,> 100 µM,3.05 µM,15.7 µM,3.21 µM,20.1 µM,2.4 µM,6.19 µM,3.21 µM,9.26 µM,2.14 µM,5.75 µM,1.91 µM,3.87 µM,1.77 µM,4.18 µM
O=c1cc(/C=C/c2ccccc2)[nH]c2cc3c(cc12)OCO3,,5.58 µM,,9.11 µM,,25 µM,,13.3 µM,7.12 µM,30.4 µM,2.22 µM,5.82 µM,,29.4 µM,,4.69 µM,,13.4 µM,,9.87 µM
C=C1C[C@@H]2CC[C@@]34C[C@H]5O[C@H]6[C@@H](O3)[C@H]3O[C@H](CC[C@@H]3O[C@H]6[C@@H]5O4)CC(=O)C[C@@H]3[C@@H](OC)[C@@H](C[C@H](O)CN)O[C@H]3C[C@H]3O[C@@H](CC[C@@H]1O2)C[C@@H](C)C3=C,< 0.01 µM,> 100 µM,< 0.01 µM,> 100 µM,< 0.01 µM,> 100 µM,< 0.01 µM,> 100 µM,0.304 µM,> 100 µM,< 0.01 µM,0.0219 µM,13.9 µM,> 100 µM,< 0.01 µM,0.0166 µM,< 0.01 µM,> 100 µM,< 0.0119 µM,0.0456 µM
CCCCN(CC)CC(C(C)=O)c1c(O)c2ccccc2oc1=O (configuration not stated),,> 100 µM,,> 100 µM,,> 100 µM,,> 100 µM,,> 100 µM,,> 100 µM,,> 100 µM,,> 100 µM,,> 100 µM,,> 100 µM
CCNC(=O)c1noc(-c2cc(C(C)C)c(O)cc2O)c1-c1ccc(CN2CCOCC2)cc1,0.0343 µM,2.09 µM,0.0311 µM,8.74 µM,5.21 µM,> 100 µM,0.0535 µM,27.2 µM,2.44 µM,34.9 µM,0.0529 µM,19.1 µM,0.0233 µM,14.8 µM,0.0662 µM,26.3 µM,0.0313 µM,15.5 µM,0.0418 µM,17.5 µM
COC(=O)C1(C)Cc2cc(OC(C)=O)c(OC(C)=O)cc2N1 (configuration not stated),13 µM,56.7 µM,5.92 µM,17.9 µM,15.7 µM,49 µM,18.2 µM,62.5 µM,16.1 µM,52.6 µM,6.97 µM,23.8 µM,11.1 µM,44.1 µM,15.4 µM,33.2 µM,3.96 µM,15.5 µM,37.8 µM,> 90.7 µM
CN(C)CCNC(=O)Cn1ccc(=O)c2c([N+](=O)[O-])cccc21,,> 100 µM,,> 100 µM,,> 100 µM,,> 100 µM,,> 100 µM,,> 100 µM,,> 100 µM,,> 100 µM,,> 100 µM,,> 100 µM
CC(NC(=O)N(C)C)NC(=O)N(C)C,,> 10 µM,,> 10 µM,,> 10 µM,,> 10 µM,,> 10 µM,,> 10 µM,,> 10 µM,,> 10 µM,,> 10 µM,,> 10 µM
COC(=O)C1(O)CC(=O)CCC1c1ccc(OC)cc1 (configuration not stated),,> 100 µM,,> 100 µM,,> 100 µM,,> 100 µM,,> 100 µM,,> 100 µM,,> 100 µM,,> 100 µM,,> 100 µM,,> 100 µM
